Reference: patent US9956214B2, “5-aminopyrazole-4-carboxamide inhibitors of CDPK1 from T. gondii and C. parvum” (UNIVERSITY OF WASHINGTON THROUGH ITS CENTER FOR …, priority 2013, dated 2018)

Assays:
hERG = hERG (Homo sapiens (Human), UniProt Q12809); experiment: hERG inhibitory activity; format: binding; conditions: in words, as compared to compound 9 (1294)
Stability = conditions: in words
Solubility at pH 6.5 = format: physicochemical; conditions: in words
C. parvum Iowa strain = experiment: C. parvum infection in mice (beige/SCID mouse model); conditions: oral gavage 20 mg/kg 8 AM and 40 mg/kg 5 PM, days 5-14 after infection; each time point except Days 0 and 3; p ≤0.05
[1] = tested on: 80 human protein kinases (hPKs); experiment: AbbVie panel of 80 human protein kinases; format: biochemical; conditions: no hPKs inhibited
Kdr = Kdr (Homo sapiens (Human), UniProt P35968); experiment: Kinase panel selectivity: Kdr; format: biochemical
Sequence of Kdr (P35968 20-1356, species assumed): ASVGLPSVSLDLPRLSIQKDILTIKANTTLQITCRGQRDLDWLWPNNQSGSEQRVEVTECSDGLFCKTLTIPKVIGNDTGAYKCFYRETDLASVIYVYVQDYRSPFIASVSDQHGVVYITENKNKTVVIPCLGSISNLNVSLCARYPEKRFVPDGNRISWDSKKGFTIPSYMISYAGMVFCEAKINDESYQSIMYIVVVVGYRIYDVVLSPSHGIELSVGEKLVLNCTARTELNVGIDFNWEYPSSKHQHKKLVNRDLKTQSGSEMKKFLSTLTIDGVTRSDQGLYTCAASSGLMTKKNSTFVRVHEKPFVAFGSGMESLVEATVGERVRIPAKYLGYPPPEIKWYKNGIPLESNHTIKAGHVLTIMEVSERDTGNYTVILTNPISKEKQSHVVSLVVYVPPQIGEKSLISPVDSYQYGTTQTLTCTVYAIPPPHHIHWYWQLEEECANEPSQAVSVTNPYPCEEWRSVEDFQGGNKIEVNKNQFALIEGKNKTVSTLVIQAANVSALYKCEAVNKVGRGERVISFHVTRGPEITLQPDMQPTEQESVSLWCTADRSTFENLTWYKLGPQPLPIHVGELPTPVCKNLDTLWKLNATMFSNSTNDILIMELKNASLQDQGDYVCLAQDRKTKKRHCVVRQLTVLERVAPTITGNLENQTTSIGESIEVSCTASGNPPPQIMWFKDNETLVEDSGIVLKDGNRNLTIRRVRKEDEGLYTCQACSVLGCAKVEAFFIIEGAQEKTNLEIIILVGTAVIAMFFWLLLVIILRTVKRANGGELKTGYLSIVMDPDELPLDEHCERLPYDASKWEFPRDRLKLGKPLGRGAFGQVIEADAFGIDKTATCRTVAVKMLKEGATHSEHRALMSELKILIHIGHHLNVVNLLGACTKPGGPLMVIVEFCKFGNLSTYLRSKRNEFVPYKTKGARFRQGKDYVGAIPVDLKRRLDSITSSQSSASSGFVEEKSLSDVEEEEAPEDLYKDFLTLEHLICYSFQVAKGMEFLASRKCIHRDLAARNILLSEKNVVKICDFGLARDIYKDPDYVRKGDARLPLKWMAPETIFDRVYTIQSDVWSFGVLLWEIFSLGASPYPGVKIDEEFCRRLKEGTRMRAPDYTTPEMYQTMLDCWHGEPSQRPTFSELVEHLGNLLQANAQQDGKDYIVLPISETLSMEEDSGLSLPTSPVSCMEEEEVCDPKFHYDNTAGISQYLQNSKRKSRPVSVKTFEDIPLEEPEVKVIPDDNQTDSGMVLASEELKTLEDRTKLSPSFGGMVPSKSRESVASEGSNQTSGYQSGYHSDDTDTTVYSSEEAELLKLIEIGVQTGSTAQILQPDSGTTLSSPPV

Oral availability = format: in vivo; conditions: compared with compound 9 (1294)
Prkcn = Prkcn (Homo sapiens (Human), UniProt O94806); experiment: Kinase panel selectivity: Prkcn; format: biochemical
Sequence of Prkcn (O94806 whole entry, looked up, species assumed): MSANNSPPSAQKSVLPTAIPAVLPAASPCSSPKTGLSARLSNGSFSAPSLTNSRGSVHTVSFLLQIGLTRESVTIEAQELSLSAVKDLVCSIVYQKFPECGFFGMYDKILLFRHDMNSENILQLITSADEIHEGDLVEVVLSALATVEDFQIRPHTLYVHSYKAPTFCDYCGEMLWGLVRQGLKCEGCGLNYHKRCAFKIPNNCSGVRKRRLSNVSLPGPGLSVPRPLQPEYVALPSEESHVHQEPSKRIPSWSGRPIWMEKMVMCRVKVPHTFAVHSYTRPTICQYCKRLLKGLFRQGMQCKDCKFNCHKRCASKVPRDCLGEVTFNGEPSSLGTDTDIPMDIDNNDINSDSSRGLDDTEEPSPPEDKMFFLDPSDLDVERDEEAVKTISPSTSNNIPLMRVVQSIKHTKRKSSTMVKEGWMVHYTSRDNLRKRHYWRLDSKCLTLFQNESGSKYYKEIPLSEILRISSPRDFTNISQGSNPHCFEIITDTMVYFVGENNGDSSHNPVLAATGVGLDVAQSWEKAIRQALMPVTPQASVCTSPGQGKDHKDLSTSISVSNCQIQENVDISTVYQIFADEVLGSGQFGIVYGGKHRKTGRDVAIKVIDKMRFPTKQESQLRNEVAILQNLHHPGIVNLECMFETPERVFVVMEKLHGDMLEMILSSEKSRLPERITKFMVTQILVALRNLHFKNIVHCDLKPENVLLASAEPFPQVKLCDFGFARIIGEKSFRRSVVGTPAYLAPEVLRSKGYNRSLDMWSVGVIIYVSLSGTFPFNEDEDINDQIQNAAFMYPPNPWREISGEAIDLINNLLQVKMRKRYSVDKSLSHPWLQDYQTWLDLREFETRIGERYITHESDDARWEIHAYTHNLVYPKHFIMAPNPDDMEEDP

[2] = tested on: 24 off-target liabilities (e.g. ion channels, G-protein receptors); experiment: 24 off-target liability screen

Sequence of hERG (Q12809 whole entry): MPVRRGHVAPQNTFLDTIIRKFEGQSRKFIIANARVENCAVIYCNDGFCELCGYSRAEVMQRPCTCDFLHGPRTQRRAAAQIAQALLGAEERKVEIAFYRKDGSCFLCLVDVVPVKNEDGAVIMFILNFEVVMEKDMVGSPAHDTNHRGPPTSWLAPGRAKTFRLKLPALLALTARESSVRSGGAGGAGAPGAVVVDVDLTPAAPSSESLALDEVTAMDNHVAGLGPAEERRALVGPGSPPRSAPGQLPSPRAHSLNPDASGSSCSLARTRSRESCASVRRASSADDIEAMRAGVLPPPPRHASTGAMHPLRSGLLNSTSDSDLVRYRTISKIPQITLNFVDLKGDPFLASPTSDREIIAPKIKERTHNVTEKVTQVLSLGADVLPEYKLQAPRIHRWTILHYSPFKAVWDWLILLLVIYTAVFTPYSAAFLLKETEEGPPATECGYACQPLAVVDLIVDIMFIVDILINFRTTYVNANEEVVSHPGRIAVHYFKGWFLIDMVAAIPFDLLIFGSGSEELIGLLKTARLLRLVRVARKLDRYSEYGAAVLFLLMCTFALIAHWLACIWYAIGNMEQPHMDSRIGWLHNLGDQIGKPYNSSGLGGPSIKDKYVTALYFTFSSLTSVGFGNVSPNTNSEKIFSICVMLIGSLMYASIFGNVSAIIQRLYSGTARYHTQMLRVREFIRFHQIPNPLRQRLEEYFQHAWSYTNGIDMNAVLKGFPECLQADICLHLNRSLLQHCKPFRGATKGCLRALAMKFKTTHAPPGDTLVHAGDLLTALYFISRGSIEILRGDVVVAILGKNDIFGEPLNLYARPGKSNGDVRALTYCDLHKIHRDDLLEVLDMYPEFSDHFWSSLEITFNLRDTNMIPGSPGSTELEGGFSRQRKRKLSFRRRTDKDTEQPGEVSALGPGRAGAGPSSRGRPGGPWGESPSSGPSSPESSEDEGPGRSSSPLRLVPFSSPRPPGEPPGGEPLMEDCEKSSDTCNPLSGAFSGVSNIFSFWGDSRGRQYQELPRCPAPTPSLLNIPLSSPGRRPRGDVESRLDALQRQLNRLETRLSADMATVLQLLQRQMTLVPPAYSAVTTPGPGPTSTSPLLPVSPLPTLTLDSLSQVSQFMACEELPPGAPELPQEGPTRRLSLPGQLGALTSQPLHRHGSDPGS

**Q.** With `CCOc1ccc2cc(-c3nn(C(C)(C)C)c(N)c3C(N)=O)cnc2c1` [Compound 39, 5-amino-1-(tert-butyl)-3-(7-ethoxyquinolin-3-yl)-1H-pyrazole-4-carboxamide] as the molecule, how does the hERG inhibitory activity (hERG) read?
**A.** no hERG inhibitory activity

**Q.** What about the stability (Stability) of the same molecule?
**A.** good stability

**Q.** And the solubility (Solubility at pH 6.5)?
**A.** good solubility

**Q.** And the “oocysts shed in stool, difference between treated and vehicle groups” value (C. parvum Iowa strain)?
**A.** the difference was significant

**Q.** What about the “inhibition of hPKs, level without inhibition” value [1] of the same molecule?
**A.** > 3 µM

**Q.** And the “Kdr pKi” value (Kdr)?
**A.** 6.24

**Q.** And the oral availability (Oral availability)?
**A.** higher oral availability

**Q.** What about the “Prkcn pKi” value (Prkcn) of the same molecule?
**A.** 6.37

**Q.** And the “signal in 24 off-target liability screen” value [2]?
**A.** no signal was detected
